Experimental data published in patent publication US9274109B2, “Gut flora-derived extracellular vesicles, and method for searching for a disease model, vaccine, and candidate drug and for diagnosis using the same” (AEON MEDIX INC., priority 2009, dated 2016).
Counter-ions that a name gives are not always drawn. Like-named read-outs stand apart in the source and are kept apart here.

Assays:
[1] = tested on: mouse macrophages (RAW 264.7); assay: In vitro screening: extracellular vesicle-induced IL-6 secretion from macrophages; assay type: cell-based; conditions: for activity at 10 µM: Mus musculus, RAW 264.7, vesicles 100 ng/ml
[2] = tested on: mouse peritoneal macrophages; assay: Ex vivo IL-6 release from mouse peritoneal macrophages with E. coli-derived extracellular vesicles; assay type: cell-based; conditions: 10 μM prodrug
Experimental: FIG. 41 is a graph showing IL-6 levels obtained by treating mouse peritoneal macrophages with 10 μM prodrugs in the presence of E. coli-derived extracellular vesicles (EC_EV)

[3] = tested on: mouse macrophages (RAW 264.7); assay: In vitro screening: extracellular vesicle-induced IL-6 secretion from macrophages; assay type: cell-based; conditions: RAW264.7, 15 h, read-out: level of IL-6 as percentage of the positive control (kinase inhibitors)
Experimental: FIG. 35 is a schematic diagram showing the discovery of substances inhibitory of the gut flora-derived extracellular vesicles-induced release of IL-6. The mouse macrophages (RAW 264.7) were treated for 15 hours with the gut flora-derived extracellular vesicles (100 ng/ml) alone, separated by the method of Example 3, or in combination with a drug candidate (10 μM), in a 37° C. incubator. The culture media was collected and centrifuged at 4° C., 500×g for 10 min and then at 4° C., 3000×g for 20 min. IL-6 in the supernatant was quantitatively analyzed by ELISA. These processes account, at least in part, for a method for in vitro screening drug candidates inhibitory of the gut flora-derived extracellular vesicle-induced secretion of IL-6, by which drug candidates preventive or therapeutic of gut flora-derived extracellular vesicles-caused diseases can be provided.
According to the method established in Example 12, mouse macrophages (RAW 264.7) were treated with neither extracellular vesicles nor any drug candidate (negative control), with E. coli-derived extracellular vesicles (0.1 μg/ml) alone (positive control) or with the extracellular vesicles (0.1 μg/ml) in combination with 10 μM of one selected from among 80 different kinase inhibitors ((kinase inhibitor library, BIOMOL No. 2832: PD-98059, U-0126, SB-203580, H-7, H-9, AG-494, AG-825, Lavendustin A, RG-14620, Tytphostin 23, Tytphostin 25, Tytphostin 46, Tytphostin 47, Tytphostin 51, Tytphostin 1, Tytphostin 9, Tytphostin AG 1288, Tytphostin AG 1478, Tytphostin AG 1295, HNMPA, Damnacanthal, Piceatannol, AG-490, AG-126, AG-370, AG-879, LY 294002, Wortmannin, GF 109203X, Hypericin, Sphingosine, H-89, H-8, HA-1004, HA-1077, HDBA, KN-62, KN-93, ML-7, ML-9, 2-Aminopurine, N9-Isopropyl-olomoucine, Olomoucine, iso-olomoucine, Roscovitine, LFM-A13, SB-202190, ZM 336372, SU 4312, AG-1296, Rottlerin, Genistein, Daiazein, Erbstatin analog, Quercetin dehydrate, SU 1498, ZM 449829, DRB (5,6-Dichloro-1-b-D-ribofuranosylbenzimidazole), HBDDE (2,2′,3,3′,4,4′-Hexahydroxy-1,1′-biphenyl-6,6′-dimethanol dimethyl ether), Indirubin, Indirubin-3′-monoxime, Y-27632, Kenpaullone, Terreic acid, BML-257, BML-259, Apigenin, BML-265 (Erlotinib analog), Rapamycin). After 15 hours of treatment, IL-6 was quantitatively analyzed by ELISA.

C57BL/6 mice = assay: In vivo serum IL-6 in extracellular vesicle-induced sepsis mouse model; conditions: 10 mg/kg i.p.; vesicles 5 μg i.p.; 6 hours; ELISA
Experimental: In vivo assay was performed to examine whether the prodrugs discovered in Example 15 exert anti-inflammatory effects in the body. To this end, the sepsis mouse models that were established by the intraperitoneal injection of 5 μg of E. coli-derived extracellular vesicles into C57BL/6 mice (male, 6 weeks old, 4 mice in each group) as in Example 6 was intraperitoneally injected with Haloperidol and Doxepein at a dose of 10 mg/kg, each. Sera were taken 6 hours later.

[4] = tested on: mouse macrophages (RAW 264.7); assay: IL-6 secretion from macrophages treated with extracellular vesicles from small intestinal fluid; assay type: cell-based; conditions: RAW 264.7, ELISA, versus vesicles alone
Excerpt: Extracellular vesicles were separated from small intestinal fluids of normal mice and DSS-induced mouse model of […]. To this end, mice were operated on to excise the small intestine. The peyer's patch and liquid were removed from the excised small intestine which was then cut at regular lengths of about 5 cm. The intestinal pieces were transversely cut and washed with physiological saline to remove impurities therefrom. They were again cut into pieces with dimensions of 1 cm×1 cm and vortexed five times for five sec per time in 30 mL of physiological saline. After the removal of intestinal tissues and impurities by centrifugation, the supernatant was ultra-centrifuged to separate extracellular vesicles.
FIGS. 3 and 4 show the secretion of the inflammatory cytokine IL-6 in mouse macrophages (RAW 264.7) treated with various concentrations of the extracellular vesicles separated from the small intestinal fluids of normal mice and DSS-induced mouse models of IBD.
FIG. 5 provides the results after an experiment was done to see whether the exracellular vesicles from the DSS-induced mouse model of IBD contained those derived from Gram-negative bacteria.

[5] = RAW264.7, 15 h, read-out: IL-6 level as percentage of the positive control (prodrugs)

Row | Molecule | activity at 10 µM [1, 5] [%] | IL-6 release from mouse peritoneal macrophages [2] | activity at 10 µM [3] [%] | also measured
1 | CN(C)CCC=C1c2ccccc2CCc2ccccc21 [Amitriptyline] | < 80 | inhibitory effect | – | –
2 | O=c1cc(-c2ccc(O)cc2)oc2cc(O)cc(O)c12 [Apigenin, 5,7-dihydroxy-2-(4-hydroxyphenyl)chromen-4-one] | – | – | < 50 | –
3 | CC(C)c1cnc(NC(=O)Cc2ccccc2)s1 [BML-259, N-(5-Isopropylthiazol-2-yl)phenylacetamide] | – | – | < 50 | –
4 | CN(C)CCC=C1c2ccccc2C=Cc2ccccc21 [Cyclobenzaprine] | < 80 | inhibitory effect | – | –
5 | OC[C@H]1O[C@H](n2cnc3cc(Cl)c(Cl)cc32)[C@@H](O)[C@H]1O [DRB, (2S,3S,4R,5R)-2-(5,6-dichlorobenzimidazol-1-yl)-5-(hydroxymethyl)oxolane-3,4-diol] | – | – | < 50 | –
6 | CNCCCN1c2ccccc2CCc2ccccc21 [Desipramine] | < 80 | inhibitory effect | – | –
7 | CN(C)CCC=C1c2ccccc2COc2ccccc21 [Doxepin] | < 80 | inhibitory effect | – | serum IL-6 level (C57BL/6 mice): effectively suppressed
8 | Cl.Cl.OCCN1CCN(CCCN2c3ccccc3Sc3ccc(C(F)(F)F)cc32)CC1 [Fluphenazine dichloride] | – | inhibitory effect | – | –
9 | CN(C)CCCn1cc(C2=C(c3c[nH]c4ccccc34)C(=O)NC2=O)c2ccccc21 [GF109203X, 3-[1-[3-(dimethylamino)propyl]indol-3-yl]-4-(1H-indol-3-yl)pyrrole-2,5-dione] | – | – | < 50 | –
10 | CC1CNCCN1S(=O)(=O)c1cccc2cnccc12 (centres unmarked) [H-7, 5-(2-methylpiperazin-1-yl)sulfonylisoquinoline dihydrochloride] | – | – | < 50 | –
11 | O=C(CCCN1CCC(O)(c2ccc(Cl)cc2)CC1)c1ccc(F)cc1 [Haloperidol] | < 80 | inhibitory effect | – | serum IL-6 level (C57BL/6 mice): effectively suppressed
12 | CN(C)CCCN1c2ccccc2CCc2ccccc21 [Imipramine] | < 80 | inhibitory effect | – | –
13 | O=C1N=c2ccccc2=C1c1[nH]c2ccccc2c1NO [Indirubin-3′monoxime, 3-[3-(hydroxyamino)-1H-indol-2-yl]indol-2-one] | – | – | < 50 | –
14 | O=C1Cc2c([nH]c3ccc(Br)cc23)-c2ccccc2N1 [Kenpaullone, 9-bromo-7,12-dihydro-5H-indolo[3,2-d][1]benzazepin-6-one] | – | – | < 50 | –
15 | O=c1cc(N2CCOCC2)oc2c(-c3ccccc3)cccc12 [LY294002, 2-morpholin-4-yl-8-phenylchromen-4-one] | – | – | < 50 | –
16 | O=S(=O)(c1cccc2c(I)cccc12)N1CCCNCC1 [ML-7, 1-(5-iodonaphthalen-1-yl)sulfonyl-1,4-diazepane hydrochloride] | – | – | < 50 | –
17 | O=S(=O)(c1cccc2c(Cl)cccc12)N1CCCNCC1 [ML-9, 1-(5-chloronaphthalen-1-yl)sulfonyl-1,4-diazepane hydrochloride] | – | – | < 50 | –
18 | CNCCCC12CCC(c3ccccc31)c1ccccc12 [Maprotiline] | < 80 | inhibitory effect | – | –
19 | Cc1ccccc1C(OCCN(C)C)c1ccccc1 (centres unmarked) [Orphenadrine] | < 80 | inhibitory effect | – | –
20 | COc1ccc2c(c1)c(OC(C)C)c(C(N)=O)[s+]2[O-] (centres unmarked) [PD-144795, 5-methoxy-3-(1-methylethoxy)benzo(b)thiophene-2-carboxamide-1-oxide] | – | – | – | IL-6 secretion at graded concentrations ([1]; 0.1, 1, 5, 10 μM, vesicles 100 ng/ml): inhibits IL-6 secretion in a dose-dependent manner; activity at 10 µM ([1]; RAW264.7, 10 μM, read-out: IL-6 level as percentage of the positive control (phosphatase inhibitors)): < 50%
21 | CC(C)(C)c1ccc(C(O)CCCN2CCC(C(O)(c3ccccc3)c3ccccc3)CC2)cc1 (centres unmarked) [Terfenadine] | < 80 | inhibitory effect | – | –
22 | Cc1c(Cl)cccc1Nc1ccccc1C(=O)O [Tolfenamic acid] | < 80 | inhibitory effect | – | –
23 | O=c1n(CCCN2CCN(c3cccc(Cl)c3)CC2)nc2ccccn12 [Trazodone] | < 80 | inhibitory effect | – | –
24 | NS(=O)(=O)c1cc2c(cc1Cl)NC(C(Cl)Cl)NS2(=O)=O (centres unmarked) [Trichlormethiazide] | < 80 | – | – | –
25 | COc1ccc(CCN(C)CCCC(C#N)(c2ccc(OC)c(OC)c2)C(C)C)cc1OC (centres unmarked) [Verapamil] | < 80 | – | – | –
26 | C=CC(=O)c1ccc2ccccc2c1 [ZM449829, 1-(2-Naphthalenyl)-2-propen-1-one] | – | – | < 50 | –
27 | polymyxin B | – | – | – | secretion of IL-6 induced by extracellular vesicles from DSS-induced IBD mice, in combination with polymyxin B [4]: decreased
